Experimental data as given in patent US6203822A, “Gallium-containing compounds for the treatment of infections caused by intracellular pathogens and pathogens causing chronic pulmonary infection” (priority 1996, dated 2001).

What was measured:
M. tuberculosis = assay: Regrowth of M. tuberculosis in BACTEC system after gallium nitrate treatment (kill versus stasis); type: cell-based
Procedure: Example 4 and Example 5 detail exemplary methods used to determine whether the mycobacteria strains were killed by the addition of gallium nitrate. […] The bacteria were resuspended in 7H9 broth (BBL Microbiology Systems) or onto agar plates without gallium nitrate and incubated under conditions known to promote bacterial growth. In Example 4, the growth index for these cultures was assessed after 6 weeks to determine whether bacteria are inhibited or killed. […] In Example 5, M. tuberculosis-infected macrophages cell lysates were plated onto the surface of media able to support M. tuberculosis growth. Colony forming unit assays were counted to assess bacterial death or inhibition.
In Examples 2 and 3, gallium nitrate inhibited growth of M. tuberculosis. To determine whether the mycobacteria strains were killed by gallium nitrate or whether various concentrations of gallium nitrate were bacteriostatic, samples from the assay were tested in the BACTEC system. […] The bacteria, if present, was resuspended in 7H9 broth without gallium nitrate and incubated in the BACTEC system under conditions known in the art to promote bacterial growth.

[1] = tested on: Leishmania chagasi promastigotes; assay: Inhibition of Leishmania chagasi promastigote growth; type: cell-based
Procedure: Visceral leishmaniasis, the most serious form of human disease cause by Leishmania species, is fatal if untreated. Currently available treatment regimes suffer from both suboptimal efficacy and considerable toxicity. […] Leishmania chagasi, the cause of visceral leishmaniasis requires iron for growth and can obtain that iron from human transferrin, lactoferrin and hemin. When incubated in an in vitro culture system (using the culture methods of Wilson et al. Infect. Immun. 62:3262-3269, 1994), L. chagasi promastigotes were inhibited by the presence of gallium nitrate in a concentration dependent manner with inhibition observed at about at least 500 μM and higher (see Example 14 and FIG. 9).
Amastigotes were isolated from the spleens of infected hamsters and allowed to convert to promastigotes by cultivation in a modified minimal essential medium (HOMEM) with 10% heat inactivated fetal calf serum and hemin (8 μM). Parasites were used within 21 days of isolation from an infected hamster. Promastigote cultures were seeded at 10^6 promastigotes per ml and used after 2 to 3 days in logarithmic phase or 5 to 7 days in stationary phase of growth. During growth studies with gallium nitrate, promastigotes were suspended in iron-containing HOMEM to allow for organism growth. […]

[2] = tested on: macrophage monolayers (MDMs); assay: Gallium toxicity in uninfected MDM monolayers; type: cell-based, human; conditions: naphthol blue stained nuclei count, read-out: gallium concentration up to which no immediate difference in monolayer density
Procedure: To test the potential toxicity of gallium nitrate on the standard macrophage monolayers (MDMs) used in the assays described in this invention, uninfected MDM monolayers were incubated with various concentrations of gallium nitrate in the range used in the studies described in Examples 2 and 3.
There was no immediate difference in monolayer density between MDM monolayers with and without gallium nitrate treatment up to a gallium concentration of 2 mM. Results were based on counting napthol blue macrophage stained nuclei from the monolayer. These numbers directly correlate with the number of cells present. In most cases the integrity of the MDM monolayer in the presence of gallium was maintained for up to 37 days, equivalent to untreated, uninfected control cultures.

[3] = infused in vivo; cited from earlier work
[4] = tested on: M. tuberculosis strain Erdman in human macrophages; assay: Growth inhibition of M. tuberculosis Erdman in human monocyte derived macrophages (MDM); type: cell-based
Procedure: Monocyte derived macrophages (MDM) containing strain H37Ra were incubated for 24 h (FIG. 2A), 48 h (FIG. 2B) or 72 h (FIG. 2C) and macrophages containing the virulent strain Erdman were incubated for 24 h (FIG. 2D) or 48 h (FIG. 2E) in gallium nitrate.
The gallium-containing compounds can also be tested for their ability to inhibit intracellular pathogens in tissue culture assays. In general, in these assays, the macrophages are placed in culture and incubated with the intracellular pathogen at an approximate cell to pathogen ratio of preferably at least 1:1 to about 1:5 cells:pathogen. Exemplary culture conditions are provided in the assays detailed in the Examples. For assays assessing M. tuberculosis infection, freshly adherent monocytes, 12 day-old adherent MDMs, or freshly adherent alveolar macrophages are incubated with M. tuberculosis, MAI or other intracellular bacteria at a ratio of about 1:1 to about 1:5 (phagocyte:bacterium). For M. tuberculosis or MAI, the bacteria are incubated with the phagocyte for 2 hr at 37° C. in RPMI/HEPES media with 2.5% serum or human serum albumin (serum-free). The cells are washed to remove non-adherent bacteria and monolayers are replated with RPMI containing 1% autologous serum (to maintain phagocyte viability but not to sustain extracellular growth of bacteria). Gallium-containing compounds, such as gallium nitrate, with, or without, other agents such as antibiotics, cytokines etc., are added about 24 hr. later and mycobacterial growth in cell lysates is then assessed over the next several days either by the radiometric BACTEC system or by colony-forming units on agarose plates. In each experiment, growth is assessed relative to control monolayers where no drug has been added.
Mononuclear phagocytes from healthy adult volunteers who were tuberculin skin test negative and had no history of mycobacterial infection were isolated and cultured in Teflon wells according to the methods of Schlesinger, et al. (J. Immunol. 150:2920-2930, 1993). […]

Question: What does the source list for `O=[N+]([O-])[O-].O=[N+]([O-])[O-].O=[N+]([O-])[O-].[Ga+3]` [gallium nitrate]?
Answer: killing of bacteria (growth index after 6 weeks) (M. tuberculosis; growth index assessed after 6 weeks): the bacteria were killed; bacterial regrowth after gallium nitrate treatment (M. tuberculosis; resuspended in 7H9 broth without gallium nitrate, BACTEC): bacteria did not grow; concentration at which inhibition was observed ([1]; L. chagasi promastigotes): at least 500 μM; inhibition of promastigote growth ([1]; about 250 μM to about 2 mM, about 24 to about 120 hrs): significantly inhibited; MNTC [2]: ≥ 2 mM; binding to serum transferrin on infusion [3]: most of the gallium binds rapidly to serum transferrin; inhibition of growth ([4]; 24 h): Inhibition of growth was observed; inhibition of growth ([4]; about 1 to about 1000 μM): dose-dependent inhibition of growth; inhibition of growth versus 24 h ([4]; text: 48 and 72 h, FIG. 2 legend: 24 and 48 h for Erdman): More marked inhibition of growth
